Measurements as given in the supplement of paper PMC10307832.

Columns and labels:
Assay in all cases: relative viability (nuclei count vs DMSO), 5 days (fraction); higher = more cells survive
[1] = compound: COc1cc2ncn(-c3cc(OCc4ccccc4C(F)(F)F)c(C(N)=O)s3)c2cc1OC + C[C@@H](Oc1cc(-c2cnn(C3CCNCC3)c2)cnc1N)c1c(Cl)ccc(F)c1Cl [Crizotinib] (partner 1 µM)
Outline: (§1)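 Lung cancer cell lines in 1536-well plates got either a single drug or a fixed anchor-drug dose together with five library-drug doses (not always all listed) in √10 steps, by pin tool, on the day after seeding. Nuclei were counted after 5 days, and relative viability is the treated-to-vehicle ratio of nuclei counts. Values are medians of duplicate plates.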

[2] = compound: COc1cc2ncn(-c3cc(OCc4ccccc4C(F)(F)F)c(C(N)=O)s3)c2cc1OC + O=C(CCCCCCC(=O)Nc1ccccc1)NO [Vorinostat] (partner 1 µM)
Outline: as §1

[3] = compound: COc1cc2ncn(-c3cc(OCc4ccccc4C(F)(F)F)c(C(N)=O)s3)c2cc1OC + CC1(C)CCC(c2ccc(Cl)cc2)=C(CN2CCN(c3ccc(C(=O)NS(=O)(=O)c4ccc(N[C@H](CCN5CCOCC5)CSc5ccccc5)c(S(=O)(=O)C(F)(F)F)c4)cc3)CC2)C1 [Navitoclax] (partner 0.5 µM)
Outline: as §1

[4] = compound: COc1cc2ncn(-c3cc(OCc4ccccc4C(F)(F)F)c(C(N)=O)s3)c2cc1OC + Cc1nc(Nc2ncc(C(=O)Nc3c(C)cccc3Cl)s2)cc(N2CCN(CCO)CC2)n1 [Dasatinib] (partner 0.075 µM)
Outline: as §1

Row | Cell Line | relative viability ([1]; first compound 0.05 µM) | relative viability ([1]; first compound 0.1581 µM) | relative viability ([1]; first compound 0.5 µM) | relative viability ([1]; first compound 1.581 µM) | relative viability ([1]; first compound 5 µM) | relative viability ([2]; first compound 0.05 µM) | relative viability ([2]; first compound 0.1581 µM) | relative viability ([2]; first compound 0.5 µM) | relative viability ([2]; first compound 1.581 µM) | relative viability ([2]; first compound 5 µM) | relative viability ([3]; first compound 0.05 µM) | relative viability ([3]; first compound 0.1581 µM) | relative viability ([3]; first compound 0.5 µM) | relative viability ([3]; first compound 1.581 µM) | relative viability ([3]; first compound 5 µM) | relative viability ([4]; first compound 0.05 µM) | relative viability ([4]; first compound 0.1581 µM) | relative viability ([4]; first compound 0.5 µM) | relative viability ([4]; first compound 1.581 µM) | relative viability ([4]; first compound 5 µM)
1 | PC-3 [JPC-3] | 0.987 | 1.01 | 0.778 | 0.34 | 0.27 | 0.907 | 0.82 | 0.515 | 0.464 | 0.31 | 0.757 | 0.715 | 0.471 | 0.27 | 0.238 | 0.943 | 0.98 | 0.767 | 0.174 | 0.168
2 | HOP-62 | 0.765 | 0.935 | 0.824 | 0.206 | 0.101 | 0.687 | 0.706 | 0.202 | 0.129 | 0.0896 | 0.92 | 0.984 | 0.843 | 0.232 | 0.814 | 0.653 | 0.694 | 0.597 | 0.15 | 0.114
3 | SK-MES-1 | 0.971 | 0.861 | 0.627 | – | 0.476 | 1.06 | 1.01 | 0.212 | 0.174 | 0.147 | 1.14 | 1.25 | 0.519 | 0.119 | 0.127 | 0.338 | 0.367 | 0.184 | 0.129 | 0.116
4 | NCI-H1666 | 0.917 | 0.913 | 0.606 | 0.289 | 0.326 | 0.954 | 0.998 | 0.584 | 0.561 | 0.527 | 0.814 | 1.05 | 0.308 | 0.225 | 0.205 | 0.825 | 0.758 | 0.518 | 0.316 | 0.271
5 | NCI-H1355 | 1.08 | 1.03 | 0.768 | 0.258 | 0.157 | 0.592 | 0.624 | 0.457 | 0.154 | 0.13 | 1.04 | 0.914 | 0.536 | 0.177 | 0.136 | 0.707 | 0.739 | 0.491 | 0.163 | 0.143
6 | HCC-827 | 0.925 | 0.871 | 0.698 | 0.341 | 0.287 | 0.995 | 0.887 | 0.763 | 0.376 | 0.445 | 0.988 | 0.99 | 0.874 | 0.287 | 0.201 | 0.321 | 0.359 | 0.222 | 0.293 | 0.292
7 | HARA | 1.18 | 0.981 | 0.786 | 0.275 | 0.119 | 0.358 | 0.421 | 0.237 | 0.0932 | 0.0592 | 1.18 | 1.06 | 0.531 | 0.26 | 0.0692 | 0.242 | 0.299 | 0.284 | 0.0989 | 0.0669
8 | HCC-366 | 0.788 | 0.545 | 0.117 | 0.013 | 0.0129 | 0.347 | 0.3 | 0.0923 | 0.0208 | 0.0152 | 1.03 | 1.03 | 0.313 | 0.0106 | 0.0086 | 0.675 | 0.67 | 0.338 | 0.0209 | 0.0192
9 | NCI-H322M | 0.741 | 0.94 | 0.724 | 0.419 | 0.466 | 0.933 | 0.914 | 0.78 | 0.522 | 0.428 | 1.24 | 1.1 | 0.863 | 0.549 | 0.629 | 0.233 | 0.263 | 0.268 | 0.27 | 0.308
10 | NCI-H2347 | 0.58 | 0.736 | 0.603 | 0.537 | 0.385 | 0.551 | 0.658 | 0.407 | 0.445 | 0.302 | 0.78 | 1.01 | 0.566 | 0.38 | 0.579 | 0.32 | 0.258 | 0.278 | 0.228 | 0.258
11 | NCI-H1975 | 1.04 | 0.913 | 0.462 | 0.212 | 0.2 | 0.501 | 0.631 | 0.272 | 0.166 | 0.134 | 0.88 | 1.01 | 0.529 | 0.168 | 0.174 | 0.415 | 0.335 | 0.207 | 0.126 | 0.109
12 | NCI-H596 | 0.959 | 0.965 | 0.991 | 0.814 | 0.401 | 0.598 | 0.405 | 0.515 | 0.246 | 0.162 | 0.782 | 0.869 | 0.58 | 0.262 | 0.16 | 0.616 | 0.561 | 0.478 | 0.279 | 0.235
13 | A-427 | 0.917 | 0.826 | 0.587 | 0.163 | 0.124 | 0.88 | 0.947 | 0.684 | 0.194 | 0.154 | 1.06 | 0.991 | 0.79 | 0.331 | 0.173 | 0.839 | 0.501 | 0.602 | 0.175 | 0.088
14 | LCLC-97TM1 | 0.419 | 0.331 | 0.165 | 0.152 | 0.145 | 0.803 | 0.822 | 0.0658 | 0.0665 | 0.0652 | 0.4 | 0.502 | 0.307 | 0.141 | 0.0841 | 0.743 | 0.74 | 0.761 | 0.214 | 0.128
15 | HCC-15 | 0.855 | 0.716 | 0.461 | 0.152 | 0.11 | 0.618 | 0.769 | 0.349 | 0.139 | 0.127 | 0.695 | 0.641 | 0.316 | 0.104 | 0.0943 | 0.582 | 0.548 | 0.242 | 0.105 | 0.0655
16 | UMC-11 | 0.627 | 0.484 | 0.141 | 0.0823 | 0.102 | 0.283 | 0.22 | 0.136 | 0.131 | 0.104 | 0.312 | 0.269 | 0.113 | 0.0962 | 0.094 | 0.533 | 0.399 | 0.168 | 0.18 | 0.133
17 | NCI-H1651 | 0.9 | 0.84 | 0.775 | 0.631 | 0.332 | 0.504 | 0.51 | 0.309 | 0.164 | 0.324 | 1.12 | 1.24 | 0.835 | 0.0858 | 0.0692 | 0.403 | 0.39 | 0.198 | 0.0914 | 0.0837
18 | NCI-H2023 | 0.605 | 0.67 | 0.424 | 0.138 | 0.0906 | 0.544 | 0.711 | 0.168 | 0.107 | 0.0613 | 0.977 | 1.1 | 0.867 | 0.0884 | 0.0956 | 0.566 | 0.532 | 0.355 | 0.096 | 0.0804
19 | COR-L 105 | 0.978 | 0.831 | 0.658 | 0.215 | 0.264 | 0.728 | 0.854 | 0.815 | 0.304 | 0.254 | 0.837 | 0.779 | 0.509 | 0.259 | 0.24 | 0.337 | 0.33 | 0.273 | 0.22 | 0.19
20 | NCI-H1734 | 0.656 | 0.616 | 0.36 | 0.239 | 0.14 | 0.776 | 0.902 | 0.365 | 0.202 | 0.137 | 0.824 | 0.806 | 0.35 | 0.133 | 0.0981 | 0.477 | 0.516 | 0.387 | 0.197 | 0.129
21 | NCI-H3122 | 0.245 | 0.288 | 0.23 | 0.186 | 0.173 | 1 | 0.596 | 0.357 | 0.13 | 0.13 | 1.05 | 1.01 | 0.212 | 0.189 | 0.202 | 0.895 | 0.562 | 0.373 | 0.125 | 0.0999
22 | CAL-12T | 0.705 | 0.377 | 0.207 | 0.126 | 0.124 | 0.674 | 0.558 | 0.268 | 0.141 | 0.159 | 1.09 | 1.11 | 0.573 | 0.231 | 0.148 | 0.415 | 0.249 | 0.0865 | 0.105 | 0.122
23 | HCC-78 | 0.314 | 0.345 | 0.245 | 0.257 | 0.257 | 0.483 | 0.396 | 0.281 | 0.261 | 0.223 | 0.752 | 0.773 | 0.498 | 0.51 | 0.63 | 0.463 | 0.537 | 0.306 | 0.317 | 0.206
24 | NCI-H2085 | 0.842 | 0.848 | 0.629 | 0.517 | 0.309 | 0.722 | 0.796 | 0.541 | 0.386 | 0.302 | 1.2 | 1.09 | 0.593 | 0.367 | 0.365 | 0.23 | 0.233 | 0.221 | 0.217 | 0.209
